Measurements: patent publication US6943178B2 (Wyeth, priority 2001, dated 2005)
Counter-ions that a name gives are not always drawn. Like-named read-outs stand apart in the source and are kept apart here.

Experiments:
human 5-HT1A receptors = biological target: T1, human 5-HT1A receptors (Homo sapiens, UniProt P08908); assay: [3H] 8-OHDPAT displacement, 5-HT1A receptor affinity; assay type: binding
T1 construct: expressed in transfected cells; host or cells: CHO cells
T1 sequence (P08908 1-422): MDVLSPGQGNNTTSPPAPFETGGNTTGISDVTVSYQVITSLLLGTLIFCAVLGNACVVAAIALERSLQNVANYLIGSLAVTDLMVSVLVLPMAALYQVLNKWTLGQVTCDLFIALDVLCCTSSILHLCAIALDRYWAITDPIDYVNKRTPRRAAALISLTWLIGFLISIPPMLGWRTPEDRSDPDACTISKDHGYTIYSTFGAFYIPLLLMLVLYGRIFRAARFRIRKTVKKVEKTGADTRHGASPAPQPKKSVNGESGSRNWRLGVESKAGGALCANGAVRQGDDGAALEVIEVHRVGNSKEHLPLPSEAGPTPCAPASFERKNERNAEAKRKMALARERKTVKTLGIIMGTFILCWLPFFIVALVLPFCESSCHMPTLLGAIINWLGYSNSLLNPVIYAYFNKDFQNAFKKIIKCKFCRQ
Text: High affinity for the serotonin 5-HT1A receptor was established by testing the claimed compound's ability to displace [^3H] 8-OHDPAT (dipropylaminotetralin) from the 5-HT1A serotonin receptor following a modification of the procedure of Hall et al., J. Neurochem. 44, 1685 (1985) which utilizes CHO cells stably transfected with human 5-HT1A receptors.

[1] = biological target: T2, cloned human 5-HT1A receptors (Homo sapiens, UniProt P08908); assay: 35S-GTPγS binding assay, 5-HT1A antagonist activity; assay type: biochemical
T2 construct: expressed in transfected cells
T2 sequence (P08908 1-422): T1 sequence (P08908 1-422)
Method: Antagonist activity at 5-HT1A receptors was established by using a ^35S-GTPγS binding assay similar to that used by Lazareno and Birdsall (Br. J. Pharmacol. 109: 1120, 1993), in which the test compound's ability to affect the binding of ^35S-GTPγS to membranes containing cloned human 5-HT1A receptors was determined. Agonists produce an increase in binding whereas antagonists produce no increase but rather reverse the effects of the standard agonist 8-OHDPAT. The test compound's maximum inhibitory effect is represented as the Imax, while its potency is defined by the IC50.

serotonin transporter = biological target: T3, serotonin transporter (Rattus norvegicus, UniProt P31652); assay: 3H-paroxetine displacement, serotonin transporter affinity; assay type: binding
T3 construct: displace ^3H-paroxetine from male rat frontal cortical membranes; from tissue; host or cells: male rat frontal cortex membranes
T3 sequence (P31652 whole entry): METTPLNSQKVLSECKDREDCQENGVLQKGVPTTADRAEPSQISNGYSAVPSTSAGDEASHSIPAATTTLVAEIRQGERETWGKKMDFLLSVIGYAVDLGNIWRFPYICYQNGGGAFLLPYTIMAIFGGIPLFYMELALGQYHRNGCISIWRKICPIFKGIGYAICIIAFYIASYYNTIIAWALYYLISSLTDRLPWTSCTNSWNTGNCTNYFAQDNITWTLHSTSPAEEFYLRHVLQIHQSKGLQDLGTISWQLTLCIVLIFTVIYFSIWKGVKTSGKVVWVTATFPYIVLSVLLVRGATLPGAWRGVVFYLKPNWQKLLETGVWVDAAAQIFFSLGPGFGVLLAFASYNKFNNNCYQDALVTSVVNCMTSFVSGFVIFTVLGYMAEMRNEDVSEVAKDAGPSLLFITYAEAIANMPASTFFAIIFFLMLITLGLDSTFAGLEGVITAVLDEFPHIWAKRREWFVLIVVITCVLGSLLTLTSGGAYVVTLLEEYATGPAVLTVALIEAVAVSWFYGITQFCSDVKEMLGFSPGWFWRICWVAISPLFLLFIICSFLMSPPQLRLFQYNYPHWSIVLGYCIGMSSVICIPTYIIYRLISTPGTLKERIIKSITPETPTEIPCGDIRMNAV

[2] = 35S-GTPγS binding, reversal of the effects of the standard agonist 8-OHDPAT
[3] = 35S-GTPγS binding, reversal of the effects of the standard agonist 8-OHDPAT, read-out: 5-HT1A Function IC50

SMILES | melting point | Ki (human 5-HT1A receptors) | 5-HT1A Function Imax (maximum inhibitory effect) [1, 2] | IC50 [1, 3] | Ki (serotonin transporter) | Ki (human 5-HT1A receptors; displacement of [3H] 8-OHDPAT, CHO cells stably transfected with human 5-HT1A receptors, read-out: 5-HT1A Receptor Affinity KI) | IC50 [1]
C1=C(c2c[nH]c3ccccc23)CCN(CC2COc3ccc4c(c3O2)OCCC4)C1 (stereo not drawn) (as salt: oxalate) [Example 4, 3-{1-(2,3,8,9-Tetrahydro-7H-[1,4]dioxino[2,3-h]chromen-2-ylmethyl)-1,2,3,6-tetrahydropyridin-4-yl}-1H-indole] | 140 °C |  |  |  |  |  | 
C1=C(c2c[nH]c3ccccc23)CCN(CC2COc3ccc4c(c3O2)OCCC4)C1 (stereo not drawn) [Example 4, 3-{1-(2,3,8,9-Tetrahydro-7H-[1,4]dioxino[2,3-h]chromen-2-ylmethyl)-1,2,3,6-tetrahydropyridin-4-yl}-1H-indole] |  | 44.1 nM | 87.0 | 0.38 nM | 0.9 nM |  | 
Fc1ccc2[nH]cc(C3=CCN(CC4COc5ccc6c(c5O4)OCCC6)CC3)c2c1 (stereo not drawn) (as salt: oxalate) [Example 2, 5-Fluoro-3-[1,2,3,6-tetrahydro-1-[(2,3,8,9-tetrahydro-7H-pyrano[2,3-f][1,4]benzodioxin-2-yl)methyl]-4-pyridinyl]-1H-indole] | 146 to 148 °C |  |  |  |  |  | 
O=C1CCOc2c1ccc1c2OC(CN2CC=C(c3c[nH]c4ccccc34)CC2)CO1 (stereo not drawn) [Example 3, 3-[4-(1H-indol-3-yl)-3,6-dihydro-2H-pyridin-1-ylmethyl]-2,3,6,7-tetrahydro-1,4,5-trioxa-phenanthren-8-one] | 210 °C |  |  |  | 2.74 nM | 156 nM | 
Fc1ccc2[nH]cc(C3=CCN(CC4COc5ccc6c(c5O4)OCCC6)CC3)c2c1 (stereo not drawn) [Example 2, 5-Fluoro-3-[1,2,3,6-tetrahydro-1-[(2,3,8,9-tetrahydro-7H-pyrano[2,3-f][1,4]benzodioxin-2-yl)methyl]-4-pyridinyl]-1H-indole] |  | 27.6 nM | 100 | 0.56 nM | 2.57 nM |  | 
O=c1ccoc2c3c(ccc12)OC(CN1CC=C(c2c[nH]c4ccc(F)cc24)CC1)CO3 (stereo not drawn) (as salt: fumarate) (hydrate or solvate) [Example 1, 3-[4-(5-Fluoro-1H-indol-3-yl)-3,6-dihydro-2H-pyridin-1-ylmethyl]-2,3-dihydro-7H-pyrano[2,3-f][1,4]benzodioxin-7-one] | 106 to 108 °C |  |  |  |  |  | 
O=c1ccoc2c3c(ccc12)OC[C@H](CN1CC=C(c2c[nH]c4ccc(F)cc24)CC1)O3 [Example 1] |  | 119 nM | 100 |  | 2.69 nM |  | 2.37 nM
